US7271005B2, “Modulation of bacterial membrane permeability” (priority 2002, dated 2007)

T1: PprA / PprB (Pseudomonas aeruginosa, UniProt Q9HWA7)
T1 construct: coding regions of the two open reading frames were amplified by PCR; His-tag; made in house; host or cells: E. coli strain M15 (pREP4) with pYW021 (pQE32-pprA) or pYW024 (pQE31-pprB)
T1 sequence (Q9HWA7 1-922): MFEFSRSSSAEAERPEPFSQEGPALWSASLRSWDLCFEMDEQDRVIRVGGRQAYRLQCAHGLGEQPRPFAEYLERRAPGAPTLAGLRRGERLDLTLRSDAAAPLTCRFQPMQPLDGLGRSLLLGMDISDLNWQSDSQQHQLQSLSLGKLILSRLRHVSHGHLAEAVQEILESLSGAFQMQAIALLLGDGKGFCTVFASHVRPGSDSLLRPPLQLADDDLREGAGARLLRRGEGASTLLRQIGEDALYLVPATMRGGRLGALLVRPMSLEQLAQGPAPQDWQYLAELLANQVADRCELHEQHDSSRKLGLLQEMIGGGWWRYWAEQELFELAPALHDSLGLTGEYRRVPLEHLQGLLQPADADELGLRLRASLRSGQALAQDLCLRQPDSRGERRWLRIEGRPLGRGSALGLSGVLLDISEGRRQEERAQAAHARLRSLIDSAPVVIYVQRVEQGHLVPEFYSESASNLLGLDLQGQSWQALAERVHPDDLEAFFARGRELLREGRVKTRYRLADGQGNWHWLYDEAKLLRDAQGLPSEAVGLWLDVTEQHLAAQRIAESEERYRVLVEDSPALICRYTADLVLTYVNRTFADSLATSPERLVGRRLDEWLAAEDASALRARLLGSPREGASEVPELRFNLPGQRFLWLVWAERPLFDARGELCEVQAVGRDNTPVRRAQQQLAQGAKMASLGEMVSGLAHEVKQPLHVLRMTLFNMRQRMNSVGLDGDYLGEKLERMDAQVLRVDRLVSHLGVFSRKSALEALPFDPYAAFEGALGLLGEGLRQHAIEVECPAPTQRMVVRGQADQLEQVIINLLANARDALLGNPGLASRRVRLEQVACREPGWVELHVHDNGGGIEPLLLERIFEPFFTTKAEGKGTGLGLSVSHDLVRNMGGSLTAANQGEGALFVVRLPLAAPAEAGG


Key:
P. aeruginosa PAK1-3 = test: Antibiotic resistance of spontaneous neomycin-resistant mutant PAK1-3 compared with parent PAK; format: cell-based, Pseudomonas aeruginosa; details: mutant PAK1-3 versus parent strain PAK
Description: A mutant P. aeruginosa (PAK) strain was used to identify the pprA membrane permeability-associated gene. Spontaneous neomycin resistant mutants of PAK were selected by culturing on L-agar medium containing 200 μg/ml neomycin.

[1] = test system: clinical isolates of P. aeruginosa; test: Antibiotic sensitivity of CF and non-CF blood clinical isolates; format: cell-based, Pseudomonas aeruginosa; details: 18 CF and 18 non-CF blood isolates; tetracycline 100 μg/ml
Description: Overexpression of the pprB gene in clinical isolates increases sensitivity to aminoglycosides. The pprB overexpresser construct was introduced into aminoglycoside-resistant clinical isolates of P. aeruginosa. 18 cystic fibrosis (CF) isolates and 18 non-CF blood isolates showing varying degrees of resistance to all aminoglycosides were randomly chosen for analysis. Since most of the strains were also resistant to carbenicillin, but sensitive to tetracycline (100 μg/ml), a tetracycline-resistant construct, pRRBTc, that expresses the pprB gene under lac promoter was used.

PAK1-3 cells = test: Complementation of PAK1-3: aminoglycoside sensitivity after introduction of plasmids; format: cell-based, Pseudomonas aeruginosa; details: PprB overexpression compared with PprA overexpression
Source text: A gene associated with membrane permeability, termed pprA, was identified by complementation assay in PAK1-3 cells. On the assumption that the PAK1-3 strain is an impermeable mutant due to loss of a gene function, an effort was made to complement the mutant with wild type PAK chromosomal DNA clones. A clone bank of 3-5 kb PAK chromosomal DNA was constructed in pUCP18, a broad host range plasmid with a lac promoter and β-lactamase. Plasmids with DNA inserts were gel purified from the clone bank and electroporated into PAK1-3.
Transformants were first selected on L-agar containing carbenicillin (150 μg/ml) and then replica plated on L-agar containing carbenicillin (150 μg/ml) plus neomycin (200 μg/ml) to screen for isolates that are sensitive to aminoglycosides. […] Plasmids were purified from the three isolates and re-transformed into fresh PAK1-3 cells. […] This plasmid was designated pUCP18B.
The pprB gene was amplified from the PAK chromosome by PCR and cloned into pUCP19, inserted in the same or opposite direction relative to the lac promoter on the vector. The resulting constructs were designated pZLRR-α and pZLRR-β, respectively. See, Wang et al., 2003, Antimicrobial Agents and Chemotherapy 47:95-101. The PCR product was cloned into pCR2.1-TOPO, resulting pCR-RR in which the pprB gene is in the opposite direction relative to the lac promoter. […]

PprA / PprB [2] = biological target: T1, PprA / PprB; test: In vitro phosphorylation assay with [γ-32P] ATP; format: biochemical; details: 5 min at room temperature, SDS-PAGE, X-ray film
Source text: (§1) PprA or PprB were purified and expressed at high levels in E. coli. To produce PprA or PprB in E.coli, coding regions of the two open reading frames were amplified by PCR as described in Wang et al., supra. The PCR products were first cloned into pCR2.1-TOPO, designated pYW017 and pYW020, respectively. Subsequently, a 2.8 kb pprA fragment from pYW017 and an 862 bp pprB fragment from pYW020 were isolated and subcloned into the BamHI and HindIII sites of pQE32 and pQE31, resulting in pYW021 and pYW024, respectively.
(§2) To purify the His-tagged PprA or PprB, E.coli strain M15 harboring pREP4 and pYW021 or pYW024 were induced with 1 mM IPTG for six hours at 28° C. His-tagged PprA and PprB were affinity purified using Ni-agarose column from the soluble fraction of the cell extracts according to the protocol provided by Qiagen, Inc. The purified proteins were dialyzed against storage buffer (50 mM TrisCl pH8.0, 50 mM KCl, 5 mM MgCl2, 1 mM DTT and 50% glycerol) for overnight and stored at−20° C. until use.
(§3) PprA and PprB function in a two-component regulatory system. Like other two-component regulatory genes, both PprA and PprB contain conserved phosphorylation sites (histidine and aspartate, respectively). An in vitro phosphorylation assay was performed to investigate the relationship between the PprA and PprB. PprA and PprB were purified as described in Example 4. […]

PprA / PprB [3] = test: In vitro phosphorylation assay with [γ-32P] ATP; format: biochemical, Pseudomonas aeruginosa; details: 5 min at room temperature, SDS-PAGE, X-ray film
Source text: as §1, §2, §3

Molecule	change of resistance/sensitivity of PAK1-3 to the antibiotic (P. aeruginosa PAK1-3)	further results
NCC[C@H](O)C(=O)N[C@@H]1C[C@H](N)[C@@H](O[C@H]2O[C@H](CN)[C@@H](O)[C@H](O)[C@H]2O)[C@H](O)[C@H]1O[C@H]1O[C@H](CO)[C@@H](O)[C@H](N)[C@H]1O [amikacine]	increased resistance	–
CC1(C)S[C@@H]2[C@H](NC(=O)C(C(=O)O)c3ccccc3)C(=O)N2[C@H]1C(=O)O (some centres unmarked) [carbenicillin]	not significantly changed	sensitivity of most of the clinical isolates [1]: resistant
O=C(O)c1cn(C2CC2)c2cc(N3CCNCC3)c(F)cc2c1=O [ciprofloxacin]	increased resistance	–
CC[C@H]1OC(=O)[C@H](C)[C@@H](O[C@H]2C[C@@](C)(OC)[C@@H](O)[C@H](C)O2)[C@H](C)[C@@H](O[C@@H]2O[C@H](C)C[C@H](N(C)C)[C@H]2O)[C@](C)(O)C[C@@H](C)C(=O)[C@H](C)[C@@H](O)[C@]1(C)O [erythromycin]	increased resistance	–
[H]/N=C(/N)N[C@H]1[C@H](O)[C@@H](O)[C@H](O[C@@H]2O[C@@H](C)[C@](O)(C=O)[C@H]2O[C@@H]2O[C@@H](CO)[C@H](O)[C@@H](O)[C@@H]2NC)[C@@H](N/C(N)=N\[H])[C@@H]1O [streptomycin]	increased resistance	–
NC[C@H]1O[C@H](O[C@H]2[C@H](O)[C@@H](O[C@H]3O[C@H](CO)[C@@H](O)[C@H](N)[C@H]3O)[C@H](N)C[C@@H]2N)[C@H](N)C[C@@H]1O [tobamycin]	increased resistance	–
gentamicin	increased resistance	–
PprB: putative response regulator (PA4296) encoded by pprB, SEQ ID NO:4; His-tagged, purified from E. coli (protein, listed as Pseudomonas aeruginosa, His tag, His-tagged, purified from E. coli) MDKPASRHFSVLIIDDEPQVTSELRELLENSGYRCVTSTHRESAIASFQADPNIGLVICDLYLGQDNGIRLIESLKEVAGNGRFFESIILTGHDGRQEVIEAMRVGAADYYQKPVAPQELLHGLERLESRLHERVRSQLSLSHVNQRLEYLAESLNSIYRDIHKIKYEVHGNSQPSALRSEDSQPSAPPAPVAESQVSPSNPLFGKLSPRQQAVARLVSKGLTNYQIAYELGITENTVKLYVSQVLRLMHMHNRTQLALALSPAAMQQGSGAVVH	–	effect of overexpression on the MIC change of PAK1-3 (PAK1-3 cells): much more dramatic; phosphorylation of PprB when PprA was mixed with PprB (PprA / PprB [2]): highly phosphorylated
PprA: putative histidine kinase homolog (PA4293) encoded by pprA, SEQ ID NO:3; His-tagged, purified from E. coli (protein, listed as Pseudomonas aeruginosa, His tag, His-tagged, purified from E. coli) MFEFSRSSSAEAERPEPFSQEGPALWSASLRSWDLCFEMDEQDRVIRVGGRQAYRLQCAHGLGEQPRPFAEYLERRAPGAPTLAGLRRGERLDLTLRSDAAAPLTCRFQPMQPLDGLGRSLLLGMDISDLNWQSDSQQHQLQSLSLGKLILSRLRHVSHGHLAEAVQEILESLSGAFQMQAIALLLGDGKGFCTVFASHVRPGSDSLLRPPLQLADDDLREGAGARLLRRGEGASTLLRQIGEDALYLVPATMRGGRLGALLVRPMSLEQLAQGPAPQDWQYLAELLANQVADRCELHEQHDSSRKLGLLQEMIGGGWWRYWAEQELFELAPALHDSLGLTGEYRRVPLEHLQGLLQPADADELGLRLRASLRSGQALAQDLCLRQPDSRGERRWLRIEGRPLGRGSALGLSGVLLDISEGRRQEERAQAAHARLRSLIDSAPVVIYVQRVEQGHLVPEFYSESASNLLGLDLQGQSWQALAERVHPDDLEAFFARGRELLREGRVKTRYRLADGQGNWHWLYDEAKLLRDAQGLPSEAVGLWLDVTEQHLAAQRIAESEERYRVLVEDSPALICRYTADLVLTYVNRTFADSLATSPERLVGRRLDEWLAAEDASALRARLLGSPREGASEVPELRFNLPGQRFLWLVWAERPLFDARGELCEVQAVGRDNTPVRRAQQQLAQGAKMASLGEMVSGLAHEVKQPLHVLRMTLFNMRQRMNSVGLDGDYLGEKLERMDAQVLRVDRLVSHLGVFSRKSALEALPFDPYAAFEGALGLLGEGLRQHAIEVECPAPTQRMVVRGQADQLEQVIINLLANARDALLGNPGLASRRVRLEQVACREPGWVELHVHDNGGGIEPLLLERIFEPFFTTKAEGKGTGLGLSVSHDLVRNMGGSLTAANQGEGALFVVRLPLAAPAEAGG	–	phosphorylation of the purified protein alone (PprA / PprB [3]): phosphorylated
